Experiments:
Dissolution test = assay type: physicochemical; conditions: 50 mM phosphate buffer pH=7.4, 37° C., 110 rpm
Description: Dissolution tests were performed by means of Sotax AT7 Smart equipped with 6×800 mL volume vessels and using a 50 mM phosphate buffer pH=7.4, previously heated to 37° C. 20 mg of the sample to be tested were placed in each vessel, and stirred (with paddles) at 110 rpm for 60 minutes at 37±0.2° C. Aliquots were taken at 5, 10, 20, 30, 45 and 60 min, filtered through 0.45 μm Chromafil Xtra RC 45/25 syringe filter and analysed by UV/VIS spectrometer Perkin Elmer Lambda 35, 1 cm quartz cell (absorbance at 203 nm). pH was determined using a Mettler Toledo pH Meter FE20 equipped with a InLab®420 electrode.
A portion of the product was subjected to a dissolution test in 50 mM phosphate buffer at pH=7.4 giving the results summarised below: […]

[1] = Thermal (polymorphic) stability at 120° C. by XRPD; assay type: physicochemical; conditions: maintained at 120° C. for 24 or 48 hours, cooled to room temperature
Description: By “polymorphically stable” it is meant that the crystalline Form α′ of the present invention when stored under stressed conditions i.e., up to a temperature of 120° C. for 24 or 48 hours, show no signs of crystallinity associated to other polymorphs of eluxadoline (e.g. Form β) as judged by the absence of their relevant peaks in an X-ray powder diffractogram (XRPD).
Analyses were performed on a Bruker AXS D8 Advance diffractometer (40 kV, 40 mA, λ=1.5418 Å), equipped with a linear Lynxeye position sensitive detector, set at 300 mm from the sample (Ni-filtered Cu-Kα1,2 radiation). Data collection was made in coupled mode and in theta-theta configuration, in the 3-30° 2-theta, sampling with a 0.02° step scan. Samples were gently ground in an agate mortar, and then deposited in the 0.2 mm-deep hollow of a silicon monocrystal zero background plate.
The polymorphically and chemically stable form α′ of eluxadoline, prepared as described in Examples 10 to 12, were maintained at 120° C. for 24 or 48 hours.

COc1ccc(CN(C(=O)[C@@H](N)Cc2c(C)cc(C(N)=O)cc2C)[C@@H](C)c2nc(-c3ccccc3)c[nH]2)cc1C(=O)O [form α′, 5-({[(2S)-2-amino-3-(4-carbamoyl-2,6-dimethylphenyl)propanoyl][(1S)-1-(4-phenyl-1H-imidazol-2-yl)ethyl]amino}methyl)-2-methoxybenzoic acid]
% dissolved (Dissolution test; 5 min): 6.06%
% dissolved (Dissolution test; 10 min): 13.93%
% dissolved (Dissolution test; 20 min): 17.81%
% dissolved (Dissolution test; 30 min): 27.87%
% dissolved (Dissolution test; 45 min): 38.40%
% dissolved (Dissolution test; 60 min): 60.17%
XRPD after thermal stress (polymorphic stability) [1]: XRPD spectrum corresponding to the one obtained in example 10

Source: US10738013B2, “Eluxadoline crystalline forms and processes for their preparation” (priority 2017, dated 2020)
